Data taken from the supplement of paper PMC11061612.

Key:
Experiment in all cases: Bliss excess, mean over the matrix (fraction); higher = more synergy
D-263MG (Glioblastoma) = system: D-263MG (Glioblastoma)
Procedure, shortened: (§1)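 After 24 hours at 37°C and 5% CO2 in 1536-well plates, cells in DMEM/F12 or RPMI plus 10% FBS received two-drug dose matrices for 72 hours. Viability came from CellTiter-Glo 2.0 luminescence and was scaled as inhibition, anchored at 0 by vehicle wells and at 1 by blank wells. Combination Emax is taken as the second-highest inhibition in the matrix, and Bliss excess as the observed combination effect less EA + EB − EA·EB, with EA and EB the single-agent effects.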

[1] = system: EFM-19 (Breast Carcinoma)
Procedure, shortened: as §1

EW-24 (Ewing's Sarcoma) = system: EW-24 (Ewing's Sarcoma)
Procedure, shortened: as §1

[2] = system: EoL-1-cell (Acute Myeloid Leukemia)
Procedure, shortened: as §1

[3] = system: HSC-4 (Oral Cavity Carcinoma)
Procedure, shortened: as §1

[4] = system: Hs-766T (Pancreatic Carcinoma)
Procedure, shortened: as §1

[5] = system: KMOE-2 (Acute Myeloid Leukemia)
Procedure, shortened: as §1

[6] = system: LU-65 (Non-Small Cell Lung Carcinoma)
Procedure, shortened: as §1

NB69 (Neuroblastoma) = system: NB69 (Neuroblastoma)
Procedure, shortened: as §1

[7] = system: NCI-H1915 (Non-Small Cell Lung Carcinoma)
Procedure, shortened: as §1

[8] = system: NCI-H358 (Lung Adenocarcinoma)
Procedure, shortened: as §1

[9] = system: NEC8 (Other Solid Carcinomas)
Procedure, shortened: as §1

[10] = system: NUGC-3 (Gastric Carcinoma)
Procedure, shortened: as §1

[11] = system: OE19 (Esophageal Adenocarcinoma)
Procedure, shortened: as §1

[12] = system: OSC-20 (Oral Cavity Carcinoma)
Procedure, shortened: as §1

[13] = system: OVCAR-4 (Ovarian Carcinoma)
Procedure, shortened: as §1

PWR-1E (Non-Cancerous) = system: PWR-1E (Non-Cancerous)
Procedure, shortened: as §1

[14] = system: SCC-15 (Oral Cavity Carcinoma)
Procedure, shortened: as §1

[15] = system: TE-1 (Esophageal Squamous Cell Carcinoma)
Procedure, shortened: as §1

TK10 (Kidney Carcinoma) = system: TK10 (Kidney Carcinoma)
Procedure, shortened: as §1

| SMILES | Bliss excess (D-263MG (Glioblastoma)) | Bliss excess [1] | Bliss excess (EW-24 (Ewing's Sarcoma)) | Bliss excess [2] | Bliss excess [3] | Bliss excess [4] | Bliss excess [5] | Bliss excess [6] | Bliss excess (NB69 (Neuroblastoma)) | Bliss excess [7] | Bliss excess [8] | Bliss excess [9] | Bliss excess [10] | Bliss excess [11] | Bliss excess [12] | Bliss excess [13] | Bliss excess (PWR-1E (Non-Cancerous)) | Bliss excess [14] | Bliss excess [15] | Bliss excess (TK10 (Kidney Carcinoma)) |
| --- | --- | --- | --- | --- | --- | --- | --- | --- | --- | --- | --- | --- | --- | --- | --- | --- | --- | --- | --- | --- |
| CN(C)CCCOc1ccc(-c2ccc3ncc4c(c3c2)n(C2CCOCC2)c(=O)n4C)cn1 [AZD0156] + C=CCn1c(=O)c2cnc(Nc3ccc(N4CCN(C)CC4)cc3)nc2n1-c1cccc(C(C)(C)O)n1 [AZD1775] (first compound max 1 µM, partner max 1 µM) | -0.039 | -0.0295 | -0.0804 | 0.0416 | -0.0418 | -0.0232 | -0.039 | -0.0032 | -0.0337 | -0.0572 | 0.0011 | 0.0183 | -0.0369 | 0.0012 | -0.0443 | -0.0368 | 0.0144 | -0.0799 | -0.0167 | -0.0318 |
| CN(C)CCCOc1ccc(-c2ccc3ncc4c(c3c2)n(C2CCOCC2)c(=O)n4C)cn1 [AZD0156] + CCN(CCO)CCCOc1ccc2c(Nc3cc(CC(=O)Nc4cccc(F)c4)[nH]n3)ncnc2c1 [AZD2811] (first compound max 1 µM, 7x7, partner max 1 µM) | -0.0339 | -0.0331 | 0.0199 | -0.0696 | -0.0348 | -0.0411 | 0.0096 | 0.0441 | -0.0815 | 0.0174 | -0.0214 | 0.0233 | 0.0312 | 0.0224 | 0.0224 | -0.0148 | 0.0831 | -0.0458 | -0.0016 | -0.0342 |
| CN(C)CCCOc1ccc(-c2ccc3ncc4c(c3c2)n(C2CCOCC2)c(=O)n4C)cn1 [AZD0156] + C[C@@H]1COCCN1C2=NC(=NC(=C2)C3(CC3)[S@](=N)(=O)C)C4=C5C=CNC5=NC=C4 [AZD6738] (first compound max 1 µM, 7x7, partner max 10 µM) | 0.0366 | -0.0264 | -0.0225 | 0.0408 | -0.0461 | 0.0079 | -0.0252 | 0.021 | -0.069 | 0.0366 | 0.0219 | 0.072 | 0.064 | 0.0277 | -0.0085 | 0.0213 | -0.0357 | -0.0209 | -0.0595 | 0.001 |
| CN(C)CCCOc1ccc(-c2ccc3ncc4c(c3c2)n(C2CCOCC2)c(=O)n4C)cn1 [AZD0156] + O=C(c1cc(Cc2n[nH]c(=O)c3ccccc23)ccc1F)N1CCN(C(=O)C2CC2)CC1 [Olaparib] (first compound max 3 µM, partner max 3 µM) | 0.0132 | 0.0014 | -0.0624 | 0.237 | 0.0226 | -0.0741 | 0.0564 | 0.0033 | 0.0875 | 0.0032 | -0.0175 | 0.104 | 0.0093 | 0.13 | 0.0433 | -0.0137 | 0.286 | 0.067 | -0.0185 | -0.0279 |
| C=CCn1c(=O)c2cnc(Nc3ccc(N4CCN(C)CC4)cc3)nc2n1-c1cccc(C(C)(C)O)n1 [AZD1775] + C1CN(CCC1(C(=O)N[C@@H](CCO)C2=CC=C(C=C2)Cl)N)C3=NC=NC4=C3C=CN4 [Capivasertib] (first compound max 3 µM, partner max 3 µM) | -0.0143 | -0.0443 | -0.0878 | -0.0451 | 0.0018 | -0.0513 | 0.0273 | -0.0688 | -0.0304 | 0.0032 | -0.0375 | 0.013 | 0.0143 | 0.0192 | -0.0196 | -0.0627 | -0.0165 | -0.0319 | 0.001 | -0.124 |
| C=CCn1c(=O)c2cnc(Nc3ccc(N4CCN(C)CC4)cc3)nc2n1-c1cccc(C(C)(C)O)n1 [AZD1775] + C[C@@H]1COCCN1C2=NC(=NC(=C2)C3(CC3)[S@](=N)(=O)C)C4=C5C=CNC5=NC=C4 [AZD6738] (first compound max 1 µM, partner max 10 µM) | -0.0766 | -0.0503 | -0.0427 | 0.0033 | -0.0155 | -0.0217 | 0.0308 | 0.0327 | 0.0351 | -0.0225 | -0.0219 | 0.163 | 0.0683 | 0.0514 | 0.0026 | 0.0352 | 0.0106 | -0.0216 | -0.0395 | -0.0896 |
| C=CCn1c(=O)c2cnc(Nc3ccc(N4CCN(C)CC4)cc3)nc2n1-c1cccc(C(C)(C)O)n1 [AZD1775] + O=C(c1cc(Cc2n[nH]c(=O)c3ccccc23)ccc1F)N1CCN(C(=O)C2CC2)CC1 [Olaparib] (first compound max 1 µM, partner max 10 µM) | -0.0366 | -0.0456 | -0.0708 | 0.0165 | -0.0337 | 0.0002 | -0.0248 | -0.0598 | 0.0619 | -0.0223 | -0.0184 | 0.0029 | -0.0798 | -0.0561 | -0.0205 | 0.0249 | -0.0175 | -0.043 | -0.0834 | -0.0601 |
| CCN(CCO)CCCOc1ccc2c(Nc3cc(CC(=O)Nc4cccc(F)c4)[nH]n3)ncnc2c1 [AZD2811] + C=CCn1c(=O)c2cnc(Nc3ccc(N4CCN(C)CC4)cc3)nc2n1-c1cccc(C(C)(C)O)n1 [AZD1775] (first compound max 1 µM, partner max 1 µM) | 0.0698 | -0.0269 | 0.0045 | -0.0033 | -0.0467 | -0.0445 | -0.0181 | -0.0557 | -0.0383 | 0.0056 | -0.0312 | 0.0471 | 0.0104 | -0.0152 | -0.0449 | 0.0107 | 0.118 | 0.0237 | 0.019 | -0.0707 |
| CCN(CCO)CCCOc1ccc2c(Nc3cc(CC(=O)Nc4cccc(F)c4)[nH]n3)ncnc2c1 [AZD2811] + C[C@@H]1COCCN1C2=NC(=NC(=C2)C3(CC3)[S@](=N)(=O)C)C4=C5C=CNC5=NC=C4 [AZD6738] (first compound max 1 µM, 7x7, partner max 10 µM) | -0.0611 | -0.0478 | -0.104 | -0.0354 | -0.0687 | -0.0734 | -0.032 | -0.0777 | -0.0806 | 0.0021 | 0.0096 | 0.0487 | 0.004 | -0.0264 | 0.0279 | -0.0179 | -0.0472 | -0.0478 | -0.0042 | -0.0811 |
| Cc1c2c(nn1C)CSCc1cc(n(C)n1)CSc1cc(c3ccccc3c1)OCCCc1c(C(=O)O)n(C)c3c-2c(Cl)ccc13 [AZD5991] + CC1(C)CCC(CN2CCN(c3ccc(C(=O)NS(=O)(=O)c4ccc(NCC5CCOCC5)c([N+](=O)[O-])c4)c(Oc4cnc5[nH]ccc5c4)c3)CC2)=C(c2ccc(Cl)cc2)C1 [Venetoclax] (first compound max 1 µM, 7x7, partner max 1 µM) | -0.0036 | 0.0055 | -0.0224 | 0.167 | -0.0498 | -0.132 | 0.0141 | -0.0487 | 0.136 | -0.0211 | -0.0289 | 0.0396 | -0.0125 | -0.0285 | -0.0059 | 0.0108 | 0.0087 | -0.0341 | – | -0.0581 |
| Cc1c2c(nn1C)CSCc1cc(n(C)n1)CSc1cc(c3ccccc3c1)OCCCc1c(C(=O)O)n(C)c3c-2c(Cl)ccc13 [AZD5991] + C[C@@H]1COCCN1C2=NC(=NC(=C2)C3(CC3)[S@](=N)(=O)C)C4=C5C=CNC5=NC=C4 [AZD6738] (first compound max 1 µM, 7x7, partner max 10 µM) | -0.0023 | 0.0543 | -0.0078 | 0.0036 | -0.0403 | 0.0201 | 0.0168 | -0.0405 | 0.0301 | 0.0212 | -0.0334 | 0.1 | 0.0119 | – | 0.0592 | -0.0472 | 0.005 | 0.0506 | 0.0125 | -0.0599 |
| Cc1c2c(nn1C)CSCc1cc(n(C)n1)CSc1cc(c3ccccc3c1)OCCCc1c(C(=O)O)n(C)c3c-2c(Cl)ccc13 [AZD5991] + Cn1cnc2c(F)c(Nc3ccc(Br)cc3Cl)c(C(=O)NOCCO)cc21 [Selumetinib] (first compound max 1 µM, 7x7, partner max 3 µM) | -0.0318 | – | -0.017 | 0.0751 | -0.0175 | -0.0859 | -0.0227 | 0.03 | 0.0377 | 0.0375 | 0.0531 | 0.0374 | 0.0106 | 0.0051 | 0.0146 | 0.0473 | -0.0294 | 0.0241 | 0.019 | 0.0135 |
| CCc1c2c(nc3ccc(O)cc13)-c1cc3c(c(=O)n1C2)COC(=O)[C@]3(O)CC [SN-38] + O=C(c1cc(Cc2n[nH]c(=O)c3ccccc23)ccc1F)N1CCN(C(=O)C2CC2)CC1 [Olaparib] (first compound max 0.3 µM, 7x7, partner max 10 µM) | 0.0617 | 0.0496 | 0.0359 | 0.135 | – | 0 | 0.0555 | 0.0282 | 0.0236 | – | 0.0029 | 0.0473 | – | 0.0026 | -0.0034 | -0.0234 | – | – | – | 0.011 |
